Reference: US20070129385A1, “Amorphous valganciclovir hydrochloride” (priority 2003, published 2007)
Where a name gives a salt, the structure may show the parent alone.

Experiments:
[1] = storage stability of the solid amorphous form; assay type: physicochemical
Excerpt: Solid amorphous valganciclovir hydrochloride is provided herein. The amorphous valganciclovir hydrochloride can be produced with no detectable crystalline valganchloride hydrochloride present, based on XRD investigations having a limit of detection of 0.5%.
The mixture of amorphous valganciclovir hydrochloride containing some crystalline form is then substantially converted to an amorphous form by dissolving it in water (optionally containing an organic solvent) followed by spray-drying of the solution as described earlier. Crystalline formation at this stage can be inhibited by storage under nitrogen in the strict absence of atmosphere or other water. The amorphous material has been found stable for up to at least 3 months with proper storage.

[2] = tested on: human cytomegalovirus; conditions: in vitro and in vivo; cited from earlier work
[3] = administered orally; cited from earlier work

time for which the material was found stable ([1]; proper storage (under nitrogen, absence of water))	Structure (SMILES)	stability on storage ([1]; stored under controlled humidity conditions)	stability profile compared with the crystalline form ([1]; versus existing crystalline form)	replication of human cytomegalovirus [2]	rate of absorption [3]
at least 3 months	CC(C)[C@@H](N)C(=O)OCC(CO)OCn1cnc2c(O)nc(N)nc21 (stereo partly drawn) [Amorphous valganciclovir hydrochloride, L-valinate ester of 2-(2-amino-1,6-dihydro-6-oxo-purin-9-yl)-methoxy-3-hydroxy-1-propanyl hydrochloride salt]	stable when stored under controlled humidity conditions	superior stability profile to the existing crystalline form		
	Nc1nc(O)c2ncn(COC(CO)CO)c2n1 [Ganciclovir]			inhibits replication of human cytomegalovirus in vitro and in vivo	very low rate of absorption
